According to article PMC10527014 (Antiviral research, 2023):
Converted amounts (≈) assume the structure as drawn. “Also recorded” adds a separate entry of the source. Where two headings read alike, the source gives them in different places.

Tests used:
[1] = Mouse plasma stability; type: in vitro ADME; settings: @ 5 hr, 37°C
[2] = system: EV-D68 MP30 PP (mouse-adapted); test: EV-D68 neurological infection; type: in vivo, AG129 mice; settings: for Mean day of death: placebo 5.5 days
[3] = biological target: CYP3A4 (Homo sapiens, UniProt P08684)
[4] = system: Coxsackie B3 Nancy; settings: read-out: 50% Effective concentration EC50, Vero 76, CPE
[5] = Mouse liver microsomes stability; type: in vitro ADME
[6] = system: Polio virus 1 Mahoney; type: cell-based; settings: read-out: 90% Effective concentration EC90, Vero 76, virus yield reduction
[7] = system: ma-EV-D68 US/MO/14-18949 (Mouse adapted); test: CPE reduction assay, ma-EV-D68 US/MO/14-18949; type: cell-based; settings: read-out: 50% Effective concentration EC50, RD
[8] = system: Vero; test: Cytotoxicity; type: cell-based; settings: read-out: 50% Cytotoxic concentration CC50, line of Coxsackie B5
[9] = system: Coxsackie B3 HA 201933; settings: read-out: 50% Effective concentration EC50; Coxsackie B3 HA 201933, Vero 76, CPE
[10] = system: SARS-CoV-2 USA/WA1/2020; test: CPE reduction assay, SARS-CoV-2 USA/WA1/2020; type: cell-based; settings: read-out: 50% Effective concentration EC50; SARS-CoV-2 USA/WA1/2020, Vero 76, CPE
[11] = Maximum tolerated dose study in AG129 mice; type: in vivo
[12] = system: Vero 76
[13] = system: Human Echovirus-11 Gregory; test: Virus yield reduction assay, Human Echovirus-11 Gregory; type: cell-based; settings: read-out: 90% Effective concentration EC90, RD, lowest concentration tested 0.032 μM
[14] = Solubility; type: physicochemical
[15] = system: Caco-2; test: Caco-2 permeability; type: in vitro ADME
[16] = Human liver microsomes stability; type: in vitro ADME
[17] = system: EV-71 Tainan/4643/98; test: Virus yield reduction assay, EV-71 Tainan/4643/98; type: cell-based; settings: read-out: 90% Effective concentration EC90; EV-71 Tainan/4643/98, Vero 76, virus yield reduction
[18] = biological target: CYP1A2 (Homo sapiens, UniProt P05177); test: CYP inhibition, CYP1A2; type: in vitro ADME; settings: read-out: CYP inhibition
[19] = system: Coxsackievirus B3-Woodruff (CVB3); type: cell-based; settings: read-out: Inhibitory concentration EC50 against CVB3-Woodruff; HeLa cells; infecting at low MOI 0.1 PFU / cell and adding drug after infection is established; ± SEM
[20] = system: Polio virus 1 Mahoney; type: cell-based; settings: read-out: 50% Effective concentration EC50, Vero 76, CPE
[21] = system: Coxsackievirus B5 (CVB5); test: CVB5 CPE rescue; type: cell-based
[22] = system: EV-D68 US/MO/14-18949; settings: read-out: 50% Effective concentration EC50; EV-D68 US/MO/14-18949, RD; n=3, 4 concentrations (log10 dilution series)
[23] = system: CYP3A4; settings: 1 μM, rifampicin as positive control, previously tested
[24] = biological target: T1, pregnane X-receptor (PXR) (Homo sapiens, UniProt O75469); test: PXR agonist activity
T1 sequence (O75469 1-434): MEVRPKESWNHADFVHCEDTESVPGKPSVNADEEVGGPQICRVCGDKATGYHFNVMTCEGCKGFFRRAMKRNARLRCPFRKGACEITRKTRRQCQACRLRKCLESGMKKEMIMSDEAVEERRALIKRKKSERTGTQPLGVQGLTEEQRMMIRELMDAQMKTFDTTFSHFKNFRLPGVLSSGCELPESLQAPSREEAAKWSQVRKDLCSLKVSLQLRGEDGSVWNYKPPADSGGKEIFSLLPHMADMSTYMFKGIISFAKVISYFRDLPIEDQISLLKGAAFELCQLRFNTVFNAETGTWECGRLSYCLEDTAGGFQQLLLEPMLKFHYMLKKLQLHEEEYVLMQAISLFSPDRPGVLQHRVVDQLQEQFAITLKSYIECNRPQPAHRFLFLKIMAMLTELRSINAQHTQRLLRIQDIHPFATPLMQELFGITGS

[25] = Human plasma protein binding; type: in vitro ADME
[26] = system: EV-D68 US/KY/14-18953; settings: read-out: 50% Effective concentration EC50; EV-D68 US/KY/14-18953, RD, CPE
[27] = system: Influenza H1N1 California/07/2009; test: CPE reduction assay, Influenza H1N1 California/07/2009; type: cell-based; settings: read-out: 50% Effective concentration EC50, Influenza H1N1 California/07/2009, MDCK

Chain of CYP3A4 (Homo sapiens, UniProt P08684) (P08684 whole entry): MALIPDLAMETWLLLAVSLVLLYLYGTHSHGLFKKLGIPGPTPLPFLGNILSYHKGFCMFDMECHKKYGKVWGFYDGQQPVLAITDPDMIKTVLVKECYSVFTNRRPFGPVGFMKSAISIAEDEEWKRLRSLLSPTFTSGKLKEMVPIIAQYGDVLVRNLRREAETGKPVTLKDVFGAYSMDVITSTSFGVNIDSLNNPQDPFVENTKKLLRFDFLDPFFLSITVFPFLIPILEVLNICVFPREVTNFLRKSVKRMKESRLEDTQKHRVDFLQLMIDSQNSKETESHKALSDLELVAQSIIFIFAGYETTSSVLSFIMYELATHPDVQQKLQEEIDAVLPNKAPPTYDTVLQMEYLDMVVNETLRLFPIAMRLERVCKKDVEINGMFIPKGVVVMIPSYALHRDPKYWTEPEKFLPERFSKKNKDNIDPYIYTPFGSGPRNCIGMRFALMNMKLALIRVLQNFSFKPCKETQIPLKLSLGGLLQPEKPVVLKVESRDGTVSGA
Chain of CYP1A2 (P05177 whole entry): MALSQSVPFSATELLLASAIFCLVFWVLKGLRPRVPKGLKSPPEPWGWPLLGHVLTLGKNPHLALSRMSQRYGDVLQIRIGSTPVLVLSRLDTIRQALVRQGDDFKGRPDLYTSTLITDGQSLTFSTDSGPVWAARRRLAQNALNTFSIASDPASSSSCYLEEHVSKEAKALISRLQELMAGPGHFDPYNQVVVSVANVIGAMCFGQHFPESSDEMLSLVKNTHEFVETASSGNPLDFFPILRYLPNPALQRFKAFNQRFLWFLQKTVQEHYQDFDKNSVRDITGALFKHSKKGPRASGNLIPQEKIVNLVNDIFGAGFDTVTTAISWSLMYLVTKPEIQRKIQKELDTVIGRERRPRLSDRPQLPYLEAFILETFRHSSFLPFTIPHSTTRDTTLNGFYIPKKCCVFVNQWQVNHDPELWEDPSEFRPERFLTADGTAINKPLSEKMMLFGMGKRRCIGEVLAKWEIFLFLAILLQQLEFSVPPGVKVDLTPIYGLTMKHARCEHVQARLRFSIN

With `Cc1cc(-c2noc(C(F)(F)F)n2)ccc1OCCCc1cc(C(=O)N(C)C)no1` [compound 11526092, 3-(3-methyl-4-(3-(3-N,N-dimethylcarbamoyl-isoxazol-5-yl)propoxy)phenyl)-5-trifluoromethyl-1,2,4-oxadiazole] the Mouse plasma stability [1] was 81.1% @ 5 hr, 37 °C, the “Mean day of death” value ([2]; 1 mg 11526092-treated group) was 6.3 days and the “Mean day of death” value ([2]; 3 mg 11526092-treated group) was 5.4 days. The “Mean day of death” value ([2]; 10 mg 11526092-treated group) was 4.3 days, the “Efficacy in the acute flaccid myelitis neurological infection model” value ([2]; abstract) was “did not show efficacy” and the Neurological scores ([2]; post-challenge study) was “none of the 1526092-treated mice showed a statistically significant reduction in neurological scores”. The “Protection from challenge infection (in words)” value ([2]; pre-challenge study) was “None of the pre-challenge 1526092-treated mice were protected from challenge infection”, the “Effect on CYP3A4 (in words)” value ([3]; human liver microsomes, at higher concentrations (Fig. S21)) was “activation (or autoactivation) of CYP3A4; also recorded: * CYP3A4 demonstrates activation with 11526092” and the IC50 ([3]; read-out: CYP inhibition, CYP3A4) was over 50000 nM. For the same compound, the EC50 [4] was 1270 nM, the “Mouse liver microsomes stability (in words)” value [5] was “poor mouse microsomal stability; also recorded: unstable” and the “Mouse liver microsomes CLint” value ([5]; mouse) was 70.6 μL/min/mg protein. The “Mouse liver microsomes t1/2” value ([5]; mouse) was 19.6 min, the EC90 [6] was 520 nM and the EC50 [7] was 28 nM. The CC50 [8] was 59100 nM, the EC50 [9] was 1010 nM and the EC50 [10] was over 7540 nM. It also gave a Maximum tolerated dose ([11]; given IP) of over 10 mg/kg, a Maximum tolerated dose ([11]; given PO) of over 100 mg/kg and a CC50 [12] of 10800 nM. For the same compound, the CC50 ([12]; read-out: 50% Cytotoxic concentration CC50, Vero 76, line of Coxsackie B3 HA 201933) was 8000 nM, the CC50 ([12]; read-out: 50% Cytotoxic concentration CC50, Vero 76, line of Coxsackie B3 Nancy) was 8000 nM and the CC50 ([12]; read-out: 50% Cytotoxic concentration CC50, Vero 76, line of EV-71) was 8250 nM. For the same compound, the CC50 ([12]; read-out: 50% Cytotoxic concentration CC50, Vero 76, line of SARS-CoV-2) was 7540 nM, the EC90 [13] was under 32 nM and the “Solubility (in words)” value [14] was “low solubility”. It also gave a Solubility ([14]; Buffer pH 7.4) of 0.11 µM (≈ 0.0467 µg/mL), a Solubility ([14]; Fasted State Simulated Gastric Fluid (FaSSGF)) of 0.55 µM (≈ 0.233 µg/mL) and a Solubility ([14]; Fasted State Simulated Intestinal Fluid (FaSSIF)) of 12.05 µM (≈ 5.11 µg/mL). The “Caco-2 Efflux ratio” value [15] was 3.5, the “Caco-2 Papp A-B” value [15] was 880 ×10⁻⁶ cm/s and the “Caco-2 Papp B-A” value [15] was 3090 ×10⁻⁶ cm/s. For the same compound, the “P-gp substrate (in words, from Caco-2 data)” value [15] was “likely a P-gp substrate”, the “Human liver microsomes stability (in words)” value [16] was “metabolically stable” and the “Human liver microsomes T1/2” value ([16]; human) was 55.3 min. The “Human liver microsomes clearance” value ([16]; human) was 25.1 μL /min/mg protein, the EC90 [17] was 2450 nM and the IC50 [18] was over 50000 nM. It also gave an EC50 [19] of 16 nM, an EC50 [20] of 570 nM and an EC50 ([21]; read-out: 50% Effective concentration EC50) of 1 nM. The EC50 ([21]; read-out: EC50 against CVB5, Vero cells, text values (Fig. S3)) was 1.1 nM, the EC50 [22] was under 100 nM and the “CYP3A induction, of control” value [23] was 3 % of control. For the same compound, the CYP3A induction ([23]; single donor in duplicate) was 1.2 x, the “PXR agonism (in words)” value [24] was “neither 11526092 nor pleconaril is an agonist” and the EC50 ([24]; read-out: PXR EC50) was over 100000 nM. The “Human plasma protein binding, stability” value [25] was 93.9%, the “Human plasma protein binding, bound” value ([25]; human) was 99.7% and the EC50 [26] was 42 nM. For the same compound, the EC50 [27] was 25900 nM.
